The results in this text go back to article PMC5355835 (Chemical Science, 2016).

For orientation: half-life means the time in which the quantity being followed falls by half. High values mean slow loss, low ones fast loss.

Data set [1] in a line: Stability assay under reductive conditions. The format is physicochemical. As to conditions: PBS buffer with 1.0 mM L-glutathione, pH 7.
The nature of data set [2]: Stability assay in human serum. The format is in vitro ADME. The following applies: male, 37 °C.
Data set [3] in a line: Temperature and pH stability assay in phosphate buffers. It counts as physicochemical. The following applies: 50 mM phosphate buffer; for half-life at 0.1 mg/mL: phosphate buffer.

SMILES strings stand for the structures.

In data set [1], `CC[C@H](C)[C@@H]1NC(=O)[C@H](Cc2ccc(O)cc2)NC(=O)[C@@H](N)CSSC[C@@H](C(=O)N2CCC[C@H]2C(=O)N[C@@H](CC(C)C)C(=O)NCC(N)=O)NC(=O)[C@H](CC(N)=O)NC(=O)[C@H](CCC(N)=O)NC1=O` [OXT, oxytocin] had a half-life at 9.9 µM of 8 h. For the same compound, the half-life at 0.45 mM in data set [2] was 28.8 h. For the same compound, the half-life in data set [3] (pH 2.0, 40 °C) was determined as 14 ± 0.9 days; in data set [3] (pH 4.5, 40 °C), 121 ± 6.2 days. Moreover, the half-life at 0.1 mg/mL in data set [3] (pH 2, half-life, pH 2.0, 55 °C) is 76.8 h; in data set [3] (pH 4.5, half-life, pH 4.5, 55 °C), 432 h; in data set [3] (pH 7, half-life, pH 7.0, 40 °C) it was 173 h; in data set [3] (pH 7, half-life, pH 7.0, 55 °C) it was 48 h; in data set [3] (pH 9, half-life, pH 9.0, 40 °C) it was 93.6 h; in data set [3] (pH 9, half-life, pH 9.0, 55 °C), 21.6 h.
